Measurements reported in patent US20070093520A1, “Method of treatment of diarrhea-predominant irritable bowel syndrome in a subject” (priority 2005, published 2007).

Tested on: diarrhea-predominant IBS subjects
Assay type: in vivo, human
Experimental: The study was performed in approximately 150 study centers. Approximately 1600 eligible subjects were to be given cilansetron 2 mg TID. At Visit 1, pre-treatment assessments were conducted. […] Subjects were to return to the study site one month later for Visit 3 (Day 31) for their first interim assessment. […] All subjects who discontinued from the study were to have the same post-study assessments required at Visit 7 performed at their early termination visit. […]
Stool specimens were analyzed at every visit for occult blood. An independent GERB had been established to provide advice on GI AEs during the course of the study.
Adverse events were assessed at Baseline, at each clinic visit, and at the end of the study (Month 12 or the early termination visit). All AEs, which occurred during the study were followed up in accordance with good medical practice until resolved or judged no longer clinically significant, or if a condition was chronic, until fully characterized. Adverse events could occur in the specified follow-up period and, regardless of the interval since the last administration of the study medication, were treated in the same manner as an AE which occurred during the treatment with study medication. Each AE was evaluated for duration, severity, seriousness, and causal relationship to the investigational drug. The action taken and the outcome were also recorded.
Specifically, subjects who were lost to follow-up and had no post-Baseline contact with the site were excluded from the Safety population. The subjects who discontinued from the study due to lost to follow-up were identified based on the information collected on the study termination CRF page.
After the pretreatment assessment at Visit 1 (Days […] to −3), subjects were to return to the study site for a Baseline assessment and start the treatment at Visit 2 (Day 1).
For the by time-interval analyses of disposition, prevalence of AEs, and of markedly abnormal and predefined changes in laboratory values, vital signs, and ECGs, the following interval windows were used:
Adverse events that were already present prior to the first dose of cilansetron study medication but increased in severity afterwards were considered as treatment-emergent.
The 5% cutoff point was based on the incidence within higher level terms.
Subjects were counted at most once for each primary system organ class and preferred term. Serious AEs that resolved prior to receiving study medication or occurred more than 30 days after the last dose of study medication were not included in the incidence tables. A listing of all SAEs is presented; SAEs with onset prior to receiving study medication or more than 30 days after discontinuation of study medication were flagged. The listing presents lower level term and preferred term of the SAE, severity, action taken, outcome, and relationship of the SAE, start and stop date of the SAE, study day of onset of the SAE, age, race, and sex.

[1] = 2 mg, Safety Population, 3008, system organ class
[2] = 2 mg, Safety Population, 3008, under Blood and Lymphatic System Disorders
[3] = 2 mg, Safety Population, 3008, under Congenital, Familial and Genetic Disorders
[4] = 2 mg, Safety Population, 3008, under Ear and Labyrinth Disorders
[5] = 2 mg, Safety Population, 3008, under Endocrine Disorders
[6] = 2 mg, Safety Population, 3008, under Eye Disorders
[7] = 2 mg, Safety Population, 3008, under Hepatobiliary Disorders
[8] = 2 mg, Safety Population, 3008, under Immune System Disorders
[9] = 2 mg, Safety Population, 3008, under Neoplasms Benign, Malignant and Unspecified

SMILES: Cc1nccn1C[C@H]1CCc2c(c3cccc4c3n2CCC4)C1=O [cilansetron, (R)-(−)-4,5,6,8,9,10-hexahydro-10-[(2-methyl-1H-imidazol-1-yl)methyl]-11H-pyrido-[3,2,1-jk]-carbazol-11-one]
- TEAE incidence: Influenza Viral Infections: 51 (4%) n (%)
- TEAE incidence: Scrotal Disorders NEC* (2 mg, Safety Population, 3008): 1 (<1%) n (%)
- TEAE incidence: Scrotal Swelling* (2 mg, Safety Population, 3008): 1 (<1%) n (%)
- TEAE incidence: Vaginal Haemorrhage* (2 mg, Safety Population, 3008): 1 (<1%) n (%)
- TEAE incidence: Vulvovaginal Disorders NEC* (2 mg, Safety Population, 3008): 1 (<1%) n (%)
- TEAE incidence: Blood and Lymphatic System Disorders [1]: 13 (<1%) n (%)
- TEAE incidence: Congenital, Familial and Genetic Disorders [1]: 3 (<1%) n (%)
- TEAE incidence: Ear and Labyrinth Disorders [1]: 22 (2%) n (%)
- TEAE incidence: Endocrine Disorders [1]: 7 (<1%) n (%)
- TEAE incidence: Eye Disorders [1]: 18 (1%) n (%)
- TEAE incidence: Hepatobiliary Disorders [1]: 13 (<1%) n (%)
- TEAE incidence: Immune System Disorders [1]: 23 (2%) n (%)
- TEAE incidence: Neoplasms Benign, Malignant and Unspecified (Incl Cysts and Polyps) [1]: 17 (1%) n (%)
- TEAE incidence: Pregnancy, Puerperium and Perinatal Conditions [1]: 2 (<1%) n (%)
- TEAE incidence: Social Circumstances [1]: 3 (<1%) n (%)
- TEAE incidence: Surgical and Medical Procedures [1]: 2 (<1%) n (%)
- TEAE incidence: Vascular Disorders [1]: 32 (2%) n (%)
- TEAE incidence: Anaemia Deficiencies [2]: 1 (<1%) n (%)
- TEAE incidence: Anaemia NOS [2]: 5 (<1%) n (%)
- TEAE incidence: Anaemia Vitamin B12 Deficiency [2]: 1 (<1%) n (%)
- TEAE incidence: Anaemias NEC [2]: 7 (<1%) n (%)
- TEAE incidence: Anisocytosis [2]: 1 (<1%) n (%)
- TEAE incidence: Eosinophilia [2]: 2 (<1%) n (%)
- TEAE incidence: Hypochromic Anaemia [2]: 1 (<1%) n (%)
- TEAE incidence: Leukocytoses NEC [2]: 4 (<1%) n (%)
- TEAE incidence: Leukocytosis [2]: 2 (<1%) n (%)
- TEAE incidence: Leukopenia NOS [2]: 2 (<1%) n (%)
- TEAE incidence: Leukopenias NEC [2]: 2 (<1%) n (%)
- TEAE incidence: Neutropenia [2]: 1 (<1%) n (%)
- TEAE incidence: Neutropenias [2]: 1 (<1%) n (%)
- TEAE incidence: Neutrophilia [2]: 2 (<1%) n (%)
- TEAE incidence: Normochromic Normocytic Anaemia [2]: 1 (<1%) n (%)
- TEAE incidence: Poikilocytosis [2]: 1 (<1%) n (%)
- TEAE incidence: Red Blood Cell Abnormal Findings NEC [2]: 1 (<1%) n (%)
- TEAE incidence: Secondary Thrombocythaemias [2]: 1 (<1%) n (%)
- TEAE incidence: Thrombocythaemia [2]: 1 (<1%) n (%)
- TEAE incidence: Congenital Claw Toe [3]: 1 (<1%) n (%)
- TEAE incidence: Musculoskeletal and Connective Tissue Disorders of Limbs Congenital [3]: 1 (<1%) n (%)
- TEAE incidence: Pigmented Naevus [3]: 2 (<1%) n (%)
- TEAE incidence: Skin and Subcutaneous Tissue Disorders Congenital NEC [3]: 2 (<1%) n (%)
- TEAE incidence: Ear Disorders NEC [4]: 3 (<1%) n (%)
- TEAE incidence: Ear Pain [4]: 3 (<1%) n (%)
- TEAE incidence: Hyperacusia [4]: 1 (<1%) n (%)
- TEAE incidence: Hyperacusis [4]: 1 (<1%) n (%)
- TEAE incidence: Inner Ear Disorder NOS [4]: 1 (<1%) n (%)
- TEAE incidence: Inner Ear Disorders NEC [4]: 1 (<1%) n (%)
- TEAE incidence: Inner Ear Signs and Symptoms [4]: 18 (1%) n (%)
- TEAE incidence: Tinnitus [4]: 8 (<1%) n (%)
- TEAE incidence: Vertigo [4]: 10 (<1%) n (%)
- TEAE incidence: Vertigo Positional [4]: 1 (<1%) n (%)
- TEAE incidence: Acquired Hypothyroidism [5]: 3 (<1%) n (%)
- TEAE incidence: Acute and Chronic Thyroiditis [5]: 1 (<1%) n (%)
- TEAE incidence: Goitre [5]: 2 (<1%) n (%)
- TEAE incidence: Thyroid Disorders NEC [5]: 2 (<1%) n (%)
- TEAE incidence: Thyroid Hyperfunction Disorders [5]: 2 (<1%) n (%)
- TEAE incidence: Thyroid Hypofunction Disorders [5]: 3 (<1%) n (%)
- TEAE incidence: Thyroid Neoplasms [5]: 1 (<1%) n (%)
- TEAE incidence: Thyroid Nodule [5]: 1 (<1%) n (%)
- TEAE incidence: Thyroiditis NOS [5]: 1 (<1%) n (%)
- TEAE incidence: Thyrotoxicosis [5]: 2 (<1%) n (%)
- TEAE incidence: Amaurosis Fugax [6]: 1 (<1%) n (%)
- TEAE incidence: Blindness (Excl Colour Blindness) [6]: 1 (<1%) n (%)
- TEAE incidence: Cataract Unilateral [6]: 1 (<1%) n (%)
- TEAE incidence: Cataracts (Excl Congenital) [6]: 1 (<1%) n (%)
- TEAE incidence: Conjunctival Haemorrhage [6]: 1 (<1%) n (%)
- TEAE incidence: Conjunctival and Corneal Bleeding and Vascular Disorders [6]: 1 (<1%) n (%)
- TEAE incidence: Conjunctivitis [6]: 1 (<1%) n (%)
- TEAE incidence: Dry Eye NOS [6]: 1 (<1%) n (%)
- TEAE incidence: Eye Irritation [6]: 1 (<1%) n (%)
- TEAE incidence: Eye Pain [6]: 2 (<1%) n (%)
- TEAE incidence: Eyelid Oedema [6]: 2 (<1%) n (%)
- TEAE incidence: Glaucoma NOS [6]: 1 (<1%) n (%)
- TEAE incidence: Glaucomas (Excl Congenital) [6]: 1 (<1%) n (%)
- TEAE incidence: Lacrimal Disorders [6]: 1 (<1%) n (%)
- TEAE incidence: Ocular Disorders NEC [6]: 2 (<1%) n (%)
- TEAE incidence: Ocular Sensation Disorders [6]: 1 (<1%) n (%)
- TEAE incidence: Partial Vision Loss [6]: 2 (<1%) n (%)
- TEAE incidence: Photophobia [6]: 1 (<1%) n (%)
- TEAE incidence: Retinal Bleeding and Vascular Disorders (Excl Retinopathy) [6]: 1 (<1%) n (%)
- TEAE incidence: Retinal Detachment [6]: 1 (<1%) n (%)
- TEAE incidence: Retinal Structural Change, Deposit and Degeneration [6]: 1 (<1%) n (%)
- TEAE incidence: Retinal Vascular Disorder NOS [6]: 1 (<1%) n (%)
- TEAE incidence: Retinitis NOS [6]: 1 (<1%) n (%)
- TEAE incidence: Vision Abnormal NOS Exacerbated [6]: 1 (<1%) n (%)
- TEAE incidence: Vision Blurred [6]: 1 (<1%) n (%)
- TEAE incidence: Visual Disorders NEC [6]: 3 (<1%) n (%)
- TEAE incidence: Visual Disturbance NOS [6]: 3 (<1%) n (%)
- TEAE incidence: Biliary Dyskinesia [7]: 1 (<1%) n (%)
- TEAE incidence: Cholecystitis NOS [7]: 2 (<1%) n (%)
- TEAE incidence: Cholecystitis and Cholelithiasis [7]: 3 (<1%) n (%)
- TEAE incidence: Cholelithiasis [7]: 1 (<1%) n (%)
- TEAE incidence: Cholestasis and Jaundice [7]: 1 (<1%) n (%)
- TEAE incidence: Gallbladder Disorders NEC [7]: 1 (<1%) n (%)
- TEAE incidence: Hepatic Cyst NOS [7]: 1 (<1%) n (%)
- TEAE incidence: Hepatic Disorder NOS [7]: 2 (<1%) n (%)
- TEAE incidence: Hepatic and Hepatobiliary Disorders NEC [7]: 2 (<1%) n (%)
- TEAE incidence: Hepatitis NOS [7]: 3 (<1%) n (%)
- TEAE incidence: Hepatobiliary Neoplasms Benign [7]: 1 (<1%) n (%)
- TEAE incidence: Hepatocellular Damage and Hepatitis NEC [7]: 5 (<1%) n (%)
- TEAE incidence: Jaundice Cholestatic [7]: 1 (<1%) n (%)
- TEAE incidence: Liver Fatty [7]: 2 (<1%) n (%)
- TEAE incidence: Allergic Conditions NEC [8]: 8 (<1%) n (%)
- TEAE incidence: Allergies to Foods, Food Additives, Drugs and Other Chemicals [8]: 3 (<1%) n (%)
- TEAE incidence: Atopic Disorders [8]: 12 (<1%) n (%)
- TEAE incidence: Drug Hypersensitivity [8]: 3 (<1%) n (%)
- TEAE incidence: Hypersensitivity NOS [8]: 7 (<1%) n (%)
- TEAE incidence: Seasonal Allergy [8]: 12 (<1%) n (%)
- TEAE incidence: Benign Ureteric Neoplasm NOS [9]: 1 (<1%) n (%)
- TEAE incidence: Bladder Neoplasm NOS [9]: 1 (<1%) n (%)
- TEAE incidence: Breast Cancer NOS* [9]: 1 (<1%) n (%)
- TEAE incidence: Breast and Nipple Neoplasms Malignant* [9]: 1 (<1%) n (%)
- TEAE incidence: Cartilage Neoplasms Benign [9]: 1 (<1%) n (%)
- TEAE incidence: Enchondromatosis [9]: 1 (<1%) n (%)
